How the values were obtained:
[1] = test system: MK cells (MK-lin); assay: MLTA, MK: concentration-response and QSP model fit; type: cell-based, human; conditions: Homo sapiens, 144 h
Method in brief: (§1)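 Freeze-thawed primary human bone marrow CD34+ cells were cultured 6 days in SFEM II with a cytokine cocktail, drug added on day 0. Subsets were counted by 17-parameter flow cytometry with TruCount beads and normalized to vehicle wells. An Emax QSP model (Emax 0–2, L1 regularization) was fitted to these counts.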

[2] = test system: late erythroid cells (Eryth II); assay: MLTA, ErythII: concentration-response and QSP model fit; type: cell-based, human; conditions: Homo sapiens, 144 h
Method in brief: as §1

[3] = test system: neutrophils (neutrophil-lin); assay: MLTA, Neut: concentration-response and QSP model fit; type: cell-based, human; conditions: Homo sapiens, Neutrophil, 144 h
Method in brief: as §1

[4] = test system: granulocyte-macrophage progenitor (GMPs); assay: MLTA, GMPs: concentration-response and QSP model fit; type: cell-based, human; conditions: Homo sapiens, 144 h, 6 days, normalized to vehicle control, read-out: GMPs normalized cell count
Method in brief: as §1

[5] = test system: B cells (B-lin); assay: MLTA, B-lin: concentration-response and QSP model fit; type: cell-based, human; conditions: Homo sapiens, B-cell, 144 h
Method in brief: as §1

[6] = test system: granulocytes (Gran-lin); assay: MLTA, Gran: concentration-response and QSP model fit; type: cell-based, human
Method in brief: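 Freeze-thawed primary human bone marrow CD34+ cells were grown in SFEM II with a multi-lineage cytokine cocktail, drug added day 0, six days at 37°C. Lineage counts came from 17-parameter flow with TruCount beads, vehicle-normalized per donor, then fitted by an Emax-based QSP model.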

[7] = test system: human bone marrow-derived CD34+ cells differentiated into multiple hematopoietic lineages; assay: MLTA, overall effects across hematopoietic lineages; type: cell-based; conditions: QSP model fit; EmaxT > 1.0 = cell-killing
Method in brief: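 Thawed primary human bone marrow CD34+ cells grown in SFEM II with a multi-lineage cytokine cocktail, drug added day 0, 6 days at 37°C, 5% CO2. Subsets counted by 17-parameter flow cytometry with TruCount beads, normalized to six vehicle wells per donor (2–7 donors); Emax model fitted per cell type.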

[8] = test system: multi-potent progenitors (MPPs); assay: MLTA, MPPs: concentration-response and QSP model fit; type: cell-based, human; conditions: Homo sapiens, 144 h
Method in brief: as §1

[9] = test system: total dead cells (totalDeadCells); assay: MLTA, total dead cells concentration-response; type: cell-based; conditions: Homo sapiens, 144 h, 6 days, normalized to vehicle control, read-out: total_dead normalized cell count
Method in brief: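 Freeze-thawed primary human bone marrow CD34+ cells in SFEM II with cytokine cocktail, drug added day 0, 6 days at 37°C, 5% CO2. Live/dead counts by 17-parameter flow cytometry with DAPI exclusion, bead-normalized, volume-corrected to cells/mL. Normalized per donor to mean of six vehicle wells; 2–7 donors pooled.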

[10] = QSP model fit of 6-day MLTA data

## CC(=O)O[C@H]1C(=O)[C@@]2(C)[C@H]([C@H](OC(=O)c3ccccc3)[C@]3(O)C[C@H](OC(=O)[C@H](O)[C@@H](NC(=O)c4ccccc4)c4ccccc4)C(C)=C1C3(C)C)[C@]1(OC(C)=O)CO[C@@H]1C[C@@H]2O [paclitaxel]
[1]; [10]
  EC50: 51.7 nM
[1]; dose 0.2 nM, 6 days, normalized to vehicle control, read-out: MK normalized cell count
  activity at 0.0002 µM: 108%
[1]; dose 1 nM, 6 days, normalized to vehicle control, read-out: MK normalized cell count
  activity at 0.001 µM: 110%
[1]; dose 5 nM, 6 days, normalized to vehicle control, read-out: MK normalized cell count
  activity at 0.005 µM: 111%
[1]; dose 25 nM, 6 days, normalized to vehicle control, read-out: MK normalized cell count
  activity at 0.025 µM: 9.64%
[1]; dose 100 nM, 6 days, normalized to vehicle control, read-out: MK normalized cell count
  activity at 0.1 µM: 0.962%
[1]; dose 500 nM, 6 days, normalized to vehicle control, read-out: MK normalized cell count
  activity at 0.5 µM: 0.754%
[1]; dose 2500 nM, 6 days, normalized to vehicle control, read-out: MK normalized cell count
  activity at 2.5 µM: 0.792%
[1]; parameter from QSP model fitting, read-out: Emax_drug_MK
  Emax: 25.9%
[2]; QSP model fit of 6-day MLTA data, read-out: EC50ErythII
  EC50: 20.2 nM
[2]; dose 0.2 nM, 6 days, normalized to vehicle control, read-out: ErythII normalized cell count
  activity at 0.0002 µM: 90.9%
[2]; dose 1 nM, 6 days, normalized to vehicle control, read-out: ErythII normalized cell count
  activity at 0.001 µM: 107%
[2]; dose 5 nM, 6 days, normalized to vehicle control, read-out: ErythII normalized cell count
  activity at 0.005 µM: 56.5%
[2]; dose 25 nM, 6 days, normalized to vehicle control, read-out: ErythII normalized cell count
  activity at 0.025 µM: 0.128%
[2]; dose 100 nM, 6 days, normalized to vehicle control, read-out: ErythII normalized cell count
  activity at 0.1 µM: 0.0395%
[2]; dose 500 nM, 6 days, normalized to vehicle control, read-out: ErythII normalized cell count
  activity at 0.5 µM: 0.0174%
[2]; dose 2500 nM, 6 days, normalized to vehicle control, read-out: ErythII normalized cell count
  activity at 2.5 µM: 0.00196%
[2]; parameter from QSP model fitting, read-out: Emax_drug_ErythroidII
  Emax: 7.1%
[3]; [10]
  EC50: 25.1 nM
[3]; dose 0.2 nM, 6 days, normalized to vehicle control, read-out: Neut normalized cell count
  activity at 0.0002 µM: 88.3%
[3]; dose 1 nM, 6 days, normalized to vehicle control, read-out: Neut normalized cell count
  activity at 0.001 µM: 80.1%
[3]; dose 5 nM, 6 days, normalized to vehicle control, read-out: Neut normalized cell count
  activity at 0.005 µM: 52.3%
[3]; dose 25 nM, 6 days, normalized to vehicle control, read-out: Neut normalized cell count
  activity at 0.025 µM: 0.045%
[3]; dose 100 nM, 6 days, normalized to vehicle control, read-out: Neut normalized cell count
  activity at 0.1 µM: 0.0394%
[3]; dose 500 nM, 6 days, normalized to vehicle control, read-out: Neut normalized cell count
  activity at 0.5 µM: 0%
[3]; dose 2500 nM, 6 days, normalized to vehicle control, read-out: Neut normalized cell count
  activity at 2.5 µM: 0%
[3]; parameter from QSP model fitting, read-out: Emax_drug_Neut
  Emax: 21.4%
[4]; dose 0.2 nM
  activity at 0.0002 µM: 126%
[4]; dose 1 nM
  activity at 0.001 µM: 119%
[4]; dose 5 nM
  activity at 0.005 µM: 109%
[4]; dose 25 nM
  activity at 0.025 µM: 3.34%
[4]; dose 100 nM
  activity at 0.1 µM: 0.101%
[4]; dose 500 nM
  activity at 0.5 µM: 0.687%
[4]; dose 2500 nM
  activity at 2.5 µM: 0.327%
[5]; [10]
  EC50: 36.7 nM
[5]; dose 0.2 nM, 6 days, normalized to vehicle control, read-out: B-lin normalized cell count
  activity at 0.0002 µM: 102%
[5]; dose 1 nM, 6 days, normalized to vehicle control, read-out: B-lin normalized cell count
  activity at 0.001 µM: 109%
[5]; dose 5 nM, 6 days, normalized to vehicle control, read-out: B-lin normalized cell count
  activity at 0.005 µM: 75.9%
[5]; dose 25 nM, 6 days, normalized to vehicle control, read-out: B-lin normalized cell count
  activity at 0.025 µM: 1.34%
[5]; dose 100 nM, 6 days, normalized to vehicle control, read-out: B-lin normalized cell count
  activity at 0.1 µM: 0.231%
[5]; dose 500 nM, 6 days, normalized to vehicle control, read-out: B-lin normalized cell count
  activity at 0.5 µM: 0.372%
[5]; dose 2500 nM, 6 days, normalized to vehicle control, read-out: B-lin normalized cell count
  activity at 2.5 µM: 0.335%
[5]; parameter from QSP model fitting, read-out: Emax_drug_B
  Emax: 91.4%
[6]; Homo sapiens, 144 h, QSP model fit of 6-day MLTA data
  EC50: 15.8 nM
[6]; Homo sapiens, 144 h, dose 0.2 nM, 6 days, normalized to vehicle control, read-out: Gran normalized cell count
  activity at 0.0002 µM: 104%
[6]; Homo sapiens, 144 h, dose 1 nM, 6 days, normalized to vehicle control, read-out: Gran normalized cell count
  activity at 0.001 µM: 122%
[6]; Homo sapiens, 144 h, dose 5 nM, 6 days, normalized to vehicle control, read-out: Gran normalized cell count
  activity at 0.005 µM: 92.8%
[6]; Homo sapiens, 144 h, dose 25 nM, 6 days, normalized to vehicle control, read-out: Gran normalized cell count
  activity at 0.025 µM: 0.105%
[6]; Homo sapiens, 144 h, dose 100 nM, 6 days, normalized to vehicle control, read-out: Gran normalized cell count
  activity at 0.1 µM: 0.0692%
[6]; Homo sapiens, 144 h, dose 500 nM, 6 days, normalized to vehicle control, read-out: Gran normalized cell count
  activity at 0.5 µM: 0.0215%
[6]; Homo sapiens, 144 h, dose 2500 nM, 6 days, normalized to vehicle control, read-out: Gran normalized cell count
  activity at 2.5 µM: 0.0279%
[6]; Homo sapiens, 144 h, parameter from QSP model fitting, read-out: Emax_drug_Gran
  Emax: 236%
[6]; cell-killing component, max(0, EmaxT-1)
  EmaxCK,Gran: 1.360 day⁻¹
[7]
  EmaxT effects across cell types (overall statement): > 1.0
[8]; dose 0.2 nM, 6 days, normalized to vehicle control, read-out: MPPs normalized cell count
  activity at 0.0002 µM: 78.7%
[8]; dose 1 nM, 6 days, normalized to vehicle control, read-out: MPPs normalized cell count
  activity at 0.001 µM: 90%
[8]; dose 5 nM, 6 days, normalized to vehicle control, read-out: MPPs normalized cell count
  activity at 0.005 µM: 71.3%
[8]; dose 25 nM, 6 days, normalized to vehicle control, read-out: MPPs normalized cell count
  activity at 0.025 µM: 28%
[8]; dose 100 nM, 6 days, normalized to vehicle control, read-out: MPPs normalized cell count
  activity at 0.1 µM: 2.32%
[8]; dose 500 nM, 6 days, normalized to vehicle control, read-out: MPPs normalized cell count
  activity at 0.5 µM: 0.649%
[8]; dose 2500 nM, 6 days, normalized to vehicle control, read-out: MPPs normalized cell count
  activity at 2.5 µM: 0.406%
[8]; parameter from QSP model fitting, read-out: Emax_drug_MPP
  Emax: 0.18%
[9]; dose 0.2 nM
  activity at 0.0002 µM: 105%
[9]; dose 1 nM
  activity at 0.001 µM: 113%
[9]; dose 5 nM
  activity at 0.005 µM: 115%
[9]; dose 25 nM
  activity at 0.025 µM: 75.5%
[9]; dose 100 nM
  activity at 0.1 µM: 47.5%
[9]; dose 500 nM
  activity at 0.5 µM: 40.7%
[9]; dose 2500 nM
  activity at 2.5 µM: 46.1%

— PMC7402526, “An in vitro quantitative systems pharmacology approach for deconvolving mechanisms of drug-induced, multilineage cytopenias” (PLoS Computational Biology, 2020)
